Assay results taken from article PMC9468151, “Identification of a binding site on soluble RANKL that can be targeted to inhibit soluble RANK-RANKL interactions and treat osteoporosis” (Nature Communications, 2022).
Values joined by “and” are separate entries in the source; they are usually repeats but may differ in a detail not shown here. Equal values may be shown once.

How the values were obtained:
sRANKL = biological target: T1, sRANKL (Rattus norvegicus, UniProt Q9ESE2, D175N); assay: Isothermal titration calorimetry (ITC) with sRANKL; assay type: binding; settings: for Kd: 25 °C, PBS 0.8% DMSO
T1 construct: (1) sRANKL (rat 159-318 aa); His6-sumo (N, cleaved yes); made in house; host or cells: Escherichia coli BL21 (DE3)
T1 sequence (Q9ESE2 159-318 D175N): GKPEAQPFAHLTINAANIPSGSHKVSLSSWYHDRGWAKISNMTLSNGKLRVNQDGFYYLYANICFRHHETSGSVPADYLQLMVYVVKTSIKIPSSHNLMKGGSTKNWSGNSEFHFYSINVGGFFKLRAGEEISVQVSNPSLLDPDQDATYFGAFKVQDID
Experimental: ITC titrations were performed on the MicroCal iTC200 system at 25 °C[55]. Working stocks of compound S3-15 were prepared in 100% DMSO at 50 mM and then diluted to 500 μM at PBS with final DMSO concentration at 0.8% (v/v). PBS with 0.8% DMSO was used as ITC buffer. Purified sRANKL or L-RANKL protein was buffer exchanged into same ITC buffer using a Millipore spin column. S3-15 at 500 μM was loaded into a syringe and protein was loaded into an isothermal calorimeter cell. During titration, S3-15 in the […] was injected (2 μL per injection, 25 injections in total, and 180 s between each injection) regularly from a rotating syringe into protein solution in the isothermal calorimeter cell. The sample cell was stirred at 385 rpm. Reference cell power was set to 5 μcal/s. Control experiments were conducted under the same conditions using buffer solution instead of S3-15. Data were analyzed using a one-site binding model in Origin 7.1 software for ITC version 7.0 (MicroCal). The dissociation constant, KD, was calculated according to equation KD = 1/K. All other parameters, K ([…]), N (varying the stoichiometry), ΔH (enthalpy of the reaction), and ΔG ([…] of the reaction) were determined from the titration data.

[1] = Pharmacokinetic studies in rat; assay type: in vivo; parameters: unit not given here
sRANKL trimerization = biological target: T2, sRANKL trimerization (Rattus norvegicus, UniProt Q9ESE2, D175N); assay: Cross-link assay of sRANKL trimerization; assay type: biochemical
T2 construct: (1) sRANKL (rat 159-318 aa); His6-sumo (N, cleaved yes); made in house; host or cells: Escherichia coli BL21 (DE3)
Text: the effect of S3-15 on RANKL self-trimerization. […]
control), S3 and S3-15 -treated sRANKL samples. The sRANKL dimer and monomer […]
trimerization process in vitro. […]
line 18 and, Figure S4L of the manuscript. […]
convinced that our sRANKL selective inhibitors does attenuate RANKL-RANK interaction without affect RANKL trimerization.”.
3. Does S3-15 affect the binding of sRANKL and mRANKL to OPG, an important
Response: To answer this question, we have performed a number of experiments. The pull-down assay was conducted to explore the effects of S3-15 on sRANKL and OPG […]
sRANKL to OPG at high concentration (10 and 1 μM) but not low concentration (0.3 μM). Three more experiments on mRANKLs have conducted to study if S3-15 affects the binding of mRANKL to OPG. Two of the experiments are on human and mouse mRANKL expressed in 293T cell, the other is on the mRANKL expressed in MC3T3-E1 osteogenic precursor cells. […]
affect the binding of mRANKL to OPG at concentration of 1 μM. […]
been documented in the page 11 at line 21 and Figure S4M-S4P of the manuscript.
Here is the paragraph we have added to the manuscript: […]

OVX mice = assay: Osteoporosis therapeutic study in OVX mice (micro-CT); assay type: in vivo, mouse; settings: S3-15 10 mg/kg/day 4 weeks, individual animals
Experimental: Female SD rats or C57BL/6 mice were cared until they grown up to 6 months old or 10 weeks old, respectively. Then we subjected them to either bilateral ovariectomy or sham operation after anesthesia with 10% chloral hydrate (0.3 mL/100 g). Then all the rats or mice were intramuscular injected of penicillin to prevent infection in the first week of surgery. For rat experiments, after 12 weeks of operation, 3 rats from sham-operated or ovariectomized groups were random selected to determine bone mass by micro-CT imaging biopsy to verify successful produced bone loss(data unshown). Then the OVX rats were individually administrated with S3-15, S3, and S3-05 orally with (10 mg/kg/day) for another 12 weeks. For mouse experiments, after 4 weeks of surgery, the OVX mice were treated with 10 mg/kg/day S3-15 for another 4 weeks.
The weight of rats or mice were recorded every week in the treatment period. After treatment, the rats were harvested, the serum, heart, liver, spleen, lung, kidney, thymus, and femurs were all collected and subjected to subsequent analysis. The right femurs of rats or mice were cleaned excess soft tissue, fixed in 10% formalin, and processed them for microcomputed tomography (micro-CT) analysis. Left mice femurs were collected and excarnate for biomechanical strength testing. Mice peripheral blood were as well as collected for flow cytometry analyzing.
The right femurs of rats or mice were further analyzed with micro-CT on Inveon PET/CT (Siemens, Germany). We used micro-CT to scan the femur from the femoral head to the femoral condyle, using 19 μm resolution, 80 kV 500uA, 360 projection, 3000-6000 image threshold, full rotation cone beam. Three-dimensional reconstruction and histomorphometric analyses of trabecular bone were conducted with the IAW (Inveon analysis workstation) analysis software. […] Trabecular bone parameters were measured including bone volume/tissue volume (BV/TV), bone surface area/bone volume (BS/BV), trabecular number (Tb.N), trabecular thickness (Tb.Th), trabecular separation(Tb.Sp) and trabecular pattern factor(Tb.P.F).

Compound	Kd (sRANKL) [µM]	plasma concentration-time (fig. S2c) ([1]; time 28 h)	plasma concentration-time (fig. S2c) ([1]; time 36 h)	effect on trimerization of sRANKL (sRANKL trimerization)	SI (sRANKL over binary-RANKL) (sRANKL; ratio of ITC KD)	BV/TV (OVX mice)	Tb.N (OVX mice)	Tb.Th (OVX mice)
CCOC(=O)c1sc(NC(=O)/C(=N/Nc2ccc(O)cc2C(=O)O)C(C)=O)nc1C [S3-05]	6.58	0.0028 and 0.0125 and 0.0083	0.0011 and 0.0231 and 0.0066	–	–	–	–	–
CCOC(=O)c1sc(NC(=O)/C(=N/Nc2ccccc2C(=O)O)C(C)=O)nc1C [S3, (E)-2-(2-(1-((5-(ethoxycarbonyl)-4-methylthiazol-2-yl)amino)-1,3-dioxobutan-2-ylidene) hydrazinyl) benzoic acid]	–	0.7405 and 0.07032 and 0.1222	0.6382 and 0.07762 and 0.02166	cannot affect	–	–	–	–
CC(=O)/C(=N\Nc1ccccc1C(=O)O)C(=O)Nc1ccccn1 [S3-15]	5.78	–	–	cannot affect the trimerization of sRANKL	21	0.134 and 0.2459 and 0.2549 and 0.1314 and 0.1319 and 0.1667 and 0.09144 and 0.215	3.01 1/mm and 5.848 1/mm and 5.596 1/mm and 2.742 1/mm and 2.832 1/mm and 3.86 1/mm and 1.833 1/mm and 4.649 1/mm	0.0445 mm and 0.04205 mm and 0.04556 mm and 0.04792 mm and 0.04659 mm and 0.04318 mm and 0.04987 mm and 0.04624 mm
